According to ChEMBL document CHEMBL4507292 (2021):

Assays:
[1] = target: Membrane-associated tyrosine- and threonine-specific cdc2-inhibitory kinase (Homo sapiens) (UniProt Q99640); details: Compound concentration 1000.0 nM
[2] = test system: Tyrosine-protein kinase ABL1 (Homo sapiens), P00519 [T315I]; details: Compound concentration 1000.0 nM
[3] = target: Serine/threonine-protein kinase 38 (Homo sapiens) (UniProt Q15208); details: Compound concentration 1000.0 nM
[4] = target: Cyclin-dependent kinase 4 (Homo sapiens) (UniProt P11802); details: Compound concentration 1000.0 nM
[5] = target: Serine/threonine-protein kinase PAK 6 (Homo sapiens) (UniProt Q9NQU5); details: Compound concentration 1000.0 nM
[6] = target: Serine/threonine-protein kinase tousled-like 1 (Homo sapiens) (UniProt Q9UKI8); details: Compound concentration 1000.0 nM
[7] = target: Serine/threonine-protein kinase RIO2 (Homo sapiens) (UniProt Q9BVS4); details: Compound concentration 1000.0 nM
[8] = target: Serine/threonine-protein kinase pim-3 (Homo sapiens) (UniProt Q86V86); details: Compound concentration 1000.0 nM
[9] = target: Uncharacterized serine/threonine-protein kinase SBK3 (Homo sapiens) (UniProt P0C264); details: Compound concentration 1000.0 nM
[10] = target: Mitogen-activated protein kinase kinase kinase 3 (Homo sapiens) (UniProt Q99759); details: Compound concentration 1000.0 nM
[11] = target: Serine/threonine-protein kinase PAK 4 (Homo sapiens) (UniProt O96013); details: Compound concentration 1000.0 nM
[12] = target: Tyrosine-protein kinase Fgr (Homo sapiens) (UniProt P09769); details: Compound concentration 1000.0 nM
[13] = target: Sigma non-opioid intracellular receptor 1 (Homo sapiens, UniProt Q99720); details: Compound concentration 10.0 uM
[14] = target: cAMP-dependent protein kinase catalytic subunit alpha (Homo sapiens) (UniProt P17612); details: Compound concentration 1000.0 nM
[15] = target: Serine/threonine-protein kinase MRCK alpha (Homo sapiens) (UniProt Q5VT25); details: Compound concentration 1000.0 nM
[16] = target: Ankyrin repeat and protein kinase domain-containing protein 1 (Homo sapiens) (UniProt Q8NFD2); details: Compound concentration 1000.0 nM
[17] = test system: Receptor-type tyrosine-protein kinase FLT3 (Homo sapiens), P36888 [D835V]; details: Compound concentration 1000.0 nM
[18] = target: Mitogen-activated protein kinase kinase kinase 15 (Homo sapiens) (UniProt Q6ZN16); details: Compound concentration 1000.0 nM
[19] = target: LIM domain kinase 2 (Homo sapiens) (UniProt P53671); details: Compound concentration 1000.0 nM
[20] = target: Serine/threonine-protein kinase Nek3 (Homo sapiens) (UniProt P51956); details: Compound concentration 1000.0 nM
[21] = target: Activin receptor type-1 (Homo sapiens) (UniProt Q04771); details: Compound concentration 1000.0 nM
[22] = target: Mitogen-activated protein kinase kinase kinase 6 (Homo sapiens) (UniProt O95382); details: Compound concentration 1000.0 nM
[23] = target: MAP/microtubule affinity-regulating kinase 3 (Homo sapiens) (UniProt P27448); details: Compound concentration 1000.0 nM
[24] = target: Mitogen-activated protein kinase kinase kinase 1 (Homo sapiens) (UniProt Q13233); details: Compound concentration 1000.0 nM
[25] = target: Ribosomal protein S6 kinase alpha-2 (Homo sapiens) (UniProt Q15349); details: Compound concentration 1000.0 nM
[26] = target: Mitogen-activated protein kinase 3 (Homo sapiens) (UniProt P27361); details: Compound concentration 1000.0 nM
[27] = target: NUAK family SNF1-like kinase 2 (Homo sapiens) (UniProt Q9H093); details: Compound concentration 1000.0 nM
[28] = target: Serine/threonine-protein kinase LATS2 (Homo sapiens) (UniProt Q9NRM7); details: Compound concentration 1000.0 nM
[29] = target: Ribosomal protein S6 kinase alpha-4 (Homo sapiens) (UniProt O75676); details: Compound concentration 1000.0 nM
[30] = target: Tyrosine-protein kinase Srms (Homo sapiens) (UniProt Q9H3Y6); details: Compound concentration 1000.0 nM
[31] = test system: Fibroblast growth factor receptor 3 (Homo sapiens), P22607 [G697C]; details: Compound concentration 1000.0 nM
[32] = test system: Tyrosine-protein kinase ABL1 (Homo sapiens), P00519 [H396P]; details: Compound concentration 1000.0 nM
[33] = target: Receptor-type tyrosine-protein kinase FLT3 (Homo sapiens) (UniProt P36888); details: Compound concentration 1000.0 nM
[34] = target: Aurora kinase B (Homo sapiens) (UniProt Q96GD4); details: Compound concentration 1000.0 nM
[35] = target: Hormonally up-regulated neu tumor-associated kinase (Homo sapiens) (UniProt P57058); details: Compound concentration 1000.0 nM
[36] = test system: Epidermal growth factor receptor (Homo sapiens), P00533 [UNDEFINED MUTATION]; details: Compound concentration 1000.0 nM
[37] = target: Beta-1 adrenergic receptor (Homo sapiens) (UniProt P08588); details: Compound concentration 10.0 uM
[38] = test system: Epidermal growth factor receptor (Homo sapiens), P00533 [G719S]; details: Compound concentration 1000.0 nM
[39] = target: Mitogen-activated protein kinase kinase kinase 14 (Homo sapiens) (UniProt Q99558); details: Compound concentration 1000.0 nM
[40] = target: Tyrosine-protein kinase Blk (Homo sapiens) (UniProt P51451); details: Compound concentration 1000.0 nM
[41] = target: Proto-oncogene tyrosine-protein kinase receptor Ret (Homo sapiens) (UniProt P07949); details: Compound concentration 1000.0 nM
[42] = target: Ribosomal protein S6 kinase alpha-2 (Homo sapiens) (UniProt Q15349); details: Compound concentration 1000.0 nM; remark: listed apart in the source
[43] = target: Serine/threonine-protein kinase RIO1 (Homo sapiens) (UniProt Q9BRS2); details: Compound concentration 1000.0 nM
[44] = target: Cyclin-dependent kinase-like 2 (Homo sapiens) (UniProt Q92772); details: Compound concentration 1000.0 nM
[45] = target: Inhibitor of nuclear factor kappa-B kinase subunit alpha (Homo sapiens) (UniProt O15111); details: Compound concentration 1000.0 nM

Ribosomal protein S6 kinase alpha-2 (Homo sapiens), sequence (Q15349 whole entry): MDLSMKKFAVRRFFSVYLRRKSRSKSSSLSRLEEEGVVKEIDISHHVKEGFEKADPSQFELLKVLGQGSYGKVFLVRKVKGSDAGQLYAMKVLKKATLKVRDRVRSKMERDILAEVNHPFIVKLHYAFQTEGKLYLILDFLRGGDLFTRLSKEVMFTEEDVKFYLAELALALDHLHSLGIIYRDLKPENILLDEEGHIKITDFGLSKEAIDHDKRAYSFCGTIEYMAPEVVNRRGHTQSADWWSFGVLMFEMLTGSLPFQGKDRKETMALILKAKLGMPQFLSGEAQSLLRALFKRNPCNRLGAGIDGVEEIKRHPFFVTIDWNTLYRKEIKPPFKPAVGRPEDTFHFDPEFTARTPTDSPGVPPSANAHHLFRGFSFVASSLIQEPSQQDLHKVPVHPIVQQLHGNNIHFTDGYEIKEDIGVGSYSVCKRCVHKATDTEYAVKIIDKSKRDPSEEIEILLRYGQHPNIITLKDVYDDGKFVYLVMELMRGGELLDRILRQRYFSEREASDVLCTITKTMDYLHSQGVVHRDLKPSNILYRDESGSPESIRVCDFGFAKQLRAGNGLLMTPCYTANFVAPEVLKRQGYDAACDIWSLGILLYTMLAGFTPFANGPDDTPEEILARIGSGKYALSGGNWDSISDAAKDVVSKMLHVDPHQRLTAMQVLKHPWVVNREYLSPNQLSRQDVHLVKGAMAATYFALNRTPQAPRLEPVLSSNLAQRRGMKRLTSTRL
Ribosomal protein S6 kinase alpha-4 (Homo sapiens), sequence (O75676 whole entry, looked up): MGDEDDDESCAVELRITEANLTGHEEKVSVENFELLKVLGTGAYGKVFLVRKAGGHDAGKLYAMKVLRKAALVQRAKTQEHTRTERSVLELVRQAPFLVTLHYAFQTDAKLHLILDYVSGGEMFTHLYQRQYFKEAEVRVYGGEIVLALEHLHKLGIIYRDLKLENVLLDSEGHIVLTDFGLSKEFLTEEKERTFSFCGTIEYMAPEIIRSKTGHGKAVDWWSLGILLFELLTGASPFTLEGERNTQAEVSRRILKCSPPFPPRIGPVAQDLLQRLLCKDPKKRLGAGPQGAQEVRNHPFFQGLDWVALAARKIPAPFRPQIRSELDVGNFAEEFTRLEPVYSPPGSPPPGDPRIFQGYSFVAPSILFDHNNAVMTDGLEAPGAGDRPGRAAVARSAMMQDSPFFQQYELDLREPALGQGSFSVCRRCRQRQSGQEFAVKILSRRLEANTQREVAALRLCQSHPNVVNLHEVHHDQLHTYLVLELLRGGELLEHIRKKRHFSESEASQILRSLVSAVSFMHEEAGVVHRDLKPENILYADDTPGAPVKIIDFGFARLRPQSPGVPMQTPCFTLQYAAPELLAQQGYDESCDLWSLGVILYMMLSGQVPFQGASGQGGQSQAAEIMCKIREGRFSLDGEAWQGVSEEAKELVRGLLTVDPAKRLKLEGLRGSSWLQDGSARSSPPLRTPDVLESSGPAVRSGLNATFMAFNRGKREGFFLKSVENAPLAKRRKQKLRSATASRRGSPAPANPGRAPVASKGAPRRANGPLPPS
Serine/threonine-protein kinase 38 (Homo sapiens), sequence (Q15208 2-465 limits assumed): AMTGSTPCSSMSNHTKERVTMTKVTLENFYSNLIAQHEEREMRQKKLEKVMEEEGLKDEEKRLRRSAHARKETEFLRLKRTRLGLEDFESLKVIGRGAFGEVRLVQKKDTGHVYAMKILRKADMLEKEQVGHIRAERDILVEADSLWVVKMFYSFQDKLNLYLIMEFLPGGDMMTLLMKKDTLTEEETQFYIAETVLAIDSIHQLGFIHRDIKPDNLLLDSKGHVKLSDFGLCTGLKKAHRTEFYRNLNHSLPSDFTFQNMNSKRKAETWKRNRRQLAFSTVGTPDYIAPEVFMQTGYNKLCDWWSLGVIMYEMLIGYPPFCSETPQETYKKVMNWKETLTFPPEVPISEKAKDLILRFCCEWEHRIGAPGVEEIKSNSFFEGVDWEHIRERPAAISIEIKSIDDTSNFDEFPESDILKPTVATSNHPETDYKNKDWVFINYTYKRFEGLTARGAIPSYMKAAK
Mitogen-activated protein kinase kinase kinase 15 (Homo sapiens), sequence (Q6ZN16 whole entry, the tested form may be a part): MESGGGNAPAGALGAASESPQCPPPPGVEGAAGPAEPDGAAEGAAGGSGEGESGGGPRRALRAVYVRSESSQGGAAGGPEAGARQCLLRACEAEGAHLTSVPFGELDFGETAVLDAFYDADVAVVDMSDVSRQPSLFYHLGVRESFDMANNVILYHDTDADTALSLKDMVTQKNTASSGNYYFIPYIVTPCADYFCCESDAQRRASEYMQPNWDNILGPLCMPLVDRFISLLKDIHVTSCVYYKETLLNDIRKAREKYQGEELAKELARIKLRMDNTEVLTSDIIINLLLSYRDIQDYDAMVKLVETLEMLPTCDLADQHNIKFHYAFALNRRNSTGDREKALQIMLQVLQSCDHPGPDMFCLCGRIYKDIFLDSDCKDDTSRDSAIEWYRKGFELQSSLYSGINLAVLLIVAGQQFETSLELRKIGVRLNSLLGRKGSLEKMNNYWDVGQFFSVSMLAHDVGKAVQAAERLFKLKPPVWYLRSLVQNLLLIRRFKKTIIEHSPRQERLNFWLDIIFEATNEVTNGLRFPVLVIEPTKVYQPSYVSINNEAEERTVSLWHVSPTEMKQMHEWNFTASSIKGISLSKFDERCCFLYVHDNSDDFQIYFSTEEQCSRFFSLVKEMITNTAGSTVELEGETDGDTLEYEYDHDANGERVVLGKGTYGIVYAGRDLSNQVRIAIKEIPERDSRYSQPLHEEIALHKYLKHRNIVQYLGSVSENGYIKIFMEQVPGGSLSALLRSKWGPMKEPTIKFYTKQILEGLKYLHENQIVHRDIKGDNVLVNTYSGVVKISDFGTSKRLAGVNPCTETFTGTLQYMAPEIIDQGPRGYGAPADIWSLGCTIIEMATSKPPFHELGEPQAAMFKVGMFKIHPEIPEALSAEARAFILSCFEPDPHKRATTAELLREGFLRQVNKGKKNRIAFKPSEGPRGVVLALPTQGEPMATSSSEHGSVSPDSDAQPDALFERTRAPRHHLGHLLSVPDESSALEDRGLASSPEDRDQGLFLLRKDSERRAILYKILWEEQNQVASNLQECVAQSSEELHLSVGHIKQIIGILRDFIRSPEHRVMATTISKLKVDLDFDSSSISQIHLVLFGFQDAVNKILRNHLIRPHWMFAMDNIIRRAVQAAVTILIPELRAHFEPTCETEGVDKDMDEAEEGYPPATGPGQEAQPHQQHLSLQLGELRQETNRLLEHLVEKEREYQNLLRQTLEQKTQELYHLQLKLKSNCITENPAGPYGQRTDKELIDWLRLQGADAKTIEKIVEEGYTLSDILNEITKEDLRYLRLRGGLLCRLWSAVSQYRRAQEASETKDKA
Tyrosine-protein kinase Blk (Homo sapiens), sequence (P51451 2-505 limits assumed): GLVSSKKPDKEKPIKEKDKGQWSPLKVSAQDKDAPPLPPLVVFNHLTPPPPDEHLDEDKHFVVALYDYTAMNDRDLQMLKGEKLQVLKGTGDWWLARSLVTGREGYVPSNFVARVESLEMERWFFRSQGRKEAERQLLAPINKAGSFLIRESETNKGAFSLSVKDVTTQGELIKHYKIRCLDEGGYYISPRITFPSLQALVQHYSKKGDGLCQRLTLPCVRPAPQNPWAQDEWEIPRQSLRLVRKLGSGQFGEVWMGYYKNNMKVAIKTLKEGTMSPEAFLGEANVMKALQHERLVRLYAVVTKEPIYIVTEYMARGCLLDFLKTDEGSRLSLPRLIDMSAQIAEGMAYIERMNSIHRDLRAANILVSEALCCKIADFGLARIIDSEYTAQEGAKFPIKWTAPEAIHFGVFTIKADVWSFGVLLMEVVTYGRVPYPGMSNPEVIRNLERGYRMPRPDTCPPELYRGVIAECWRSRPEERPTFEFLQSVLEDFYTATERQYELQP
Serine/threonine-protein kinase PAK 6 (Homo sapiens), sequence (Q9NQU5 whole entry, looked up): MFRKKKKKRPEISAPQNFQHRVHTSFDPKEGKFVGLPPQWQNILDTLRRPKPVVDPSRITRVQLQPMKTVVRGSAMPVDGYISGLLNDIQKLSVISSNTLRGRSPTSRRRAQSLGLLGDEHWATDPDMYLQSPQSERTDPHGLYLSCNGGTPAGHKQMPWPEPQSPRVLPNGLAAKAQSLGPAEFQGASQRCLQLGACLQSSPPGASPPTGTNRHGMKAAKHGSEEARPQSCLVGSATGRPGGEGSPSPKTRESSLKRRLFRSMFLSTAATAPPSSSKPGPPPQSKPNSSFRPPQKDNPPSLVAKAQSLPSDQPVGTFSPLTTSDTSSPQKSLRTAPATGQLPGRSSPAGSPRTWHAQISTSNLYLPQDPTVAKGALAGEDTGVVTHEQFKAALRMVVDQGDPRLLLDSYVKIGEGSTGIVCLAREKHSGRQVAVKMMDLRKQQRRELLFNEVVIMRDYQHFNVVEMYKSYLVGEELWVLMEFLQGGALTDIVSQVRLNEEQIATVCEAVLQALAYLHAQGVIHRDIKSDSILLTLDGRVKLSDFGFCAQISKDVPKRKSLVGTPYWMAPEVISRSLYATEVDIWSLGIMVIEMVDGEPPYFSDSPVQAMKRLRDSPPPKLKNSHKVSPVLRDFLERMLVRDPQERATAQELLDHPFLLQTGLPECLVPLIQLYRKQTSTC
Sigma non-opioid intracellular receptor 1, sequence (Q99720 whole entry): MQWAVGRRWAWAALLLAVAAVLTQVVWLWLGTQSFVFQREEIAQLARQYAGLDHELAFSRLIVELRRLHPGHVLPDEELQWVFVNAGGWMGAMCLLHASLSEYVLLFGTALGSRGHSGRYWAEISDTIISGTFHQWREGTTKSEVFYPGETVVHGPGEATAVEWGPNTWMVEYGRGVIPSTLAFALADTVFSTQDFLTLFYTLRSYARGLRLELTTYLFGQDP

Structure (SMILES): Cc1c(C(=O)O)cc(-c2ccc(C3CCNCC3)cc2)c2ccc(-c3ccc(C(F)(F)F)cc3)cc12 [PPTN-NC]
- residual activity [1]: 100%
- residual activity [2]: 82%
- residual activity [3]: 84%
- residual activity [4]: 100%
- residual activity [5]: 100%
- residual activity [6]: 100%
- residual activity [7]: 100%
- residual activity [8]: 100%
- residual activity [9]: 80%
- residual activity [10]: 98%
- residual activity [11]: 100%
- residual activity [12]: 100%
- inhibition [13]: 91.8%
- residual activity [14]: 100%
- residual activity [15]: 100%
- residual activity [16]: 100%
- residual activity [17]: 100%
- residual activity [18]: 100%
- residual activity [19]: 100%
- residual activity [20]: 85%
- residual activity [21]: 100%
- residual activity [22]: 100%
- residual activity [23]: 100%
- residual activity [24]: 100%
- residual activity [25]: 100%
- residual activity [26]: 100%
- residual activity [27]: 100%
- residual activity [28]: 100%
- residual activity [29]: 100%
- residual activity [30]: 100%
- residual activity [31]: 100%
- residual activity [32]: 99%
- residual activity [33]: 100%
- residual activity [34]: 100%
- residual activity [35]: 100%
- residual activity [36]: 100%
- inhibition [37]: 29.2%
- residual activity [38]: 94%
- residual activity [39]: 100%
- residual activity [40]: 100%
- residual activity [41]: 99%
- residual activity [42]: 100%
- residual activity [43]: 100%
- residual activity [44]: 100%
- residual activity [45]: 98%

Structure (SMILES): O=C(O)c1cc(-c2ccc(C3CCNCC3)cc2)c2ccc(-c3ccc(C(F)(F)F)cc3)cc2c1 [PPTN]
- residual activity [1]: 100%
- residual activity [2]: 74%
- residual activity [3]: 83%
- residual activity [4]: 100%
- residual activity [5]: 100%
- residual activity [6]: 100%
- residual activity [7]: 100%
- residual activity [8]: 100%
- residual activity [9]: 75%
- residual activity [10]: 83%
- residual activity [11]: 100%
- residual activity [12]: 100%
- inhibition [13]: 84.9%
- residual activity [14]: 100%
- residual activity [15]: 100%
- residual activity [16]: 100%
- residual activity [17]: 100%
- residual activity [18]: 99%
- residual activity [19]: 100%
- residual activity [20]: 100%
- residual activity [21]: 100%
- residual activity [22]: 100%
- residual activity [23]: 100%
- residual activity [24]: 100%
- residual activity [25]: 100%
- residual activity [26]: 100%
- residual activity [27]: 100%
- residual activity [28]: 100%
- residual activity [29]: 100%
- residual activity [30]: 100%
- residual activity [31]: 100%
- residual activity [32]: 86%
- residual activity [33]: 90%
- residual activity [34]: 100%
- residual activity [35]: 100%
- residual activity [36]: 100%
- inhibition [37]: 24.7%
- residual activity [38]: 100%
- residual activity [39]: 100%
- residual activity [40]: 86%
- residual activity [41]: 90%
- residual activity [42]: 100%
- residual activity [43]: 100%
- residual activity [44]: 100%
- residual activity [45]: 87%
